The target of one test is T1, α-chymotrypsin (Bos taurus, UniProt P00766).
T1 construct: purchased Sigma-Aldrich C3142; host or cells: bovine pancreas
Description: α-Chymotrypsin inhibition assay (N-Suc-LLVY-AMC cleavage). Type of test: biochemical. The note with it: bovine. On the procedure: Analytical data are in accor dance with those reported in the literature12.
(+)-Pinanediol (1- am inobenzyl)boronate h ydrochloride 9g
A previousl y reported m ethod was used for the first step of the s ynthesis3.
Phenylm agnesium brom ide 0.7 M (3.1 m L, 2.15 mm ol, 1.2 equiv) was added dropwise at −78°C to a solution of (+)-pinanediol dichloromethyl boronate 24 (470 m g, 1.79 mmol, 1.0 equiv) in anh ydrous dieth yl ether (10 m L). Af ter 15 m in ZnCl2 1 M (1.8 m L, 1.8 mm ol, 1.0 equiv) was slowl y added at this t em perature. T he reaction m ixture was allowed to warm up to room tem perature over 2 hours. The inorganic precipitate was filtered off and the solvents were rem oved in vacuo. The residue was dissolved in pentane, washed with water and dried over Na2SO4. Rem oval of the solvent gives a product which was forwarded to the next step without purification. […]
Assays f or inh ib ition of tr yp s in activity (T PC K trea ted, f rom bovine pa ncreas; Sigm a-Aldrich T 1426) were based on cleavage of the fluorogenic peptide substrate Boc -QAR-AMC (Sigma- Aldrich B4153). which contains the fluorescent 7- am ino-4-m ethyl c oum arin (AMC) group. […] Cleavage of this bond results in release of AMC and i ncreased fluorescence. […]

Test [1] deals with T2, recombinant PfSUB1 (rPfSUB1) (Plasmodium falciparum, UniProt Q8I0V0).
T2 construct: Chymotrypsin-treated rPfSUB1 (expressed and purified as described previously); made in house
The experiment in a line: rPfSUB1 fluorogenic peptide substrate cleavage inhibition assay. Format: biochemical. The note with it: versus mammalian trypsin, chymotrypsin and elastase.

T2 sequence (Q8I0V0 218-688): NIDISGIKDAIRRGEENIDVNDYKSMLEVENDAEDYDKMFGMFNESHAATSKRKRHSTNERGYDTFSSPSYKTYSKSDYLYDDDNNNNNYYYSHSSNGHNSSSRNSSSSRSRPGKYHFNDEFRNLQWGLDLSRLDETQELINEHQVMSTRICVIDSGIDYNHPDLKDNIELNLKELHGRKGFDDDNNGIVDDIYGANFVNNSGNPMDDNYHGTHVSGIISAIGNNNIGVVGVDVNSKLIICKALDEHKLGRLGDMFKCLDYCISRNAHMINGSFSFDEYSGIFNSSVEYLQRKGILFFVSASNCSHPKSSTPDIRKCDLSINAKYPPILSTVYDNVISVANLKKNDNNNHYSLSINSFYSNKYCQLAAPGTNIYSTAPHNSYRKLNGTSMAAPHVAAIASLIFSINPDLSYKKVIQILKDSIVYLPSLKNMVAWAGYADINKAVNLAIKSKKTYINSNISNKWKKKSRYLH

Turning to `CC(=O)NC(C(=O)NC(C(=O)NCC(=O)NC(C)B(O)O)C(C)C)C1CCCC1` (centres unmarked) [3j], on α-chymotrypsin, the IC50 (as a rule, the midpoint of a concentration-inhibition curve) is > 200 µM. Also, the “selectivity for PfSUB1” value in test [1] is recorded as > 100 fold.

Values taken from PMC8157947, “Peptidic boronic acids are potent cell-permeable inhibitors of the malaria parasite egress serine protease SUB1” (Proceedings of the National Academy of Sciences of the …, 2021).
